We go through two compounds from patent US20100196308A1, “VITAMIN D3 AND ANALOGS THEREOF FOR ALLEVIATING SIDE EFFECTS ASSOCIATED WITH CHEMOTHERAPY” (priority 2009, published 2010).

The subject of series [1] is Long Evans rats injected with MIAC51. Kind of series: Absolute neutrophil counts in chloroleukemic rats under chemotherapy regimens. The conditions noted are these: for Nadir ANC without calcitriol treatment: chemotherapy + vehicle. As to the method: For the first cycle of experiments, 15-day old Long Evans rats were injected with MIAC51. […] Starting on day 20 through 32, complete granulocyte counts were then performed by puncturing the tail vein with a 27 gauge syringe while animals were manually restrained.
Neutrophil counts were measured by puncturing the tail vein as described above. […] On day 52, rats were randomized into 3 groups for each chemotherapy regimen.

A short description of series [2]: Calcium levels in chemotherapy-treated chloroleukemic rats. From the text:
On days 22, 26, 49 and 53, blood from 3 animals is collected by cardiac puncture. All blood samples are collected in a vial for analysis of calcium levels. All animals used for bone marrow cultures are anesthetized and exsanguinated prior to obtaining the bone marrow.

For a further series, the system named is bone marrow progenitors. Kind of series: Bone marrow cultures (colony counts) from chemotherapy-treated chloroleukemic rats. As to the method: To assay the Colony-Forming Activity of bone marrow progenitors and MIAC51 cells, bone marrow cells are obtained as previously described (Jimenez and Yunis, 1988), and are washed with serum free DMEM. Cells are then suspended to a concentration of 1×10^6/mL and layered onto a gradient for centrifugation for 40 minutes at 400 g. The pellet found between the medium and gradient is then carefully aspirated and washed in serum free DMEM two times. Finally, a cell suspension containing 1×10^5 cells/mL is prepared in DMEM supplemented with 10% fetal bovine serum, and incubated in tissue culture plates for 3 hours. The non-adherent cells are aspirated and transferred to semi-solid agar culture plates.
To prepare semi-solid agar medium, powdered MEM is reconstituted in tissue-culture grade water to a concentration of 2×. Agar (0.3%) is then added and the mixture is boiled until the agar is fully dissolved (Perkins and Yunis, 1986). The medium is cooled to 37° C. and essential amino acids which might have been depleted during the boiling process are then added. The semi-solid medium is then distributed onto multi-well clusters, filling one well with tissue culture grade water to avoid further evaporation. At this point, G- or GM-CSF are added following manufacturer's procedure, and the bone marrow cell suspension or MIAC51 cells are added by careful pipetting in order to avoid bubbles. Colonies are counted 7 days later.
Bone marrow cultures were performed on days 22, 25 and 32. On day 32, a complete leukocyte count was performed in all animals and those who were positive for MIAC51 were sacrificed.

The next series concerns MIAC51. To be noted: stated in the power analysis of Example 2.
Series [3] deals with Peripheral circulating progenitor stem cells. The experiment in a line: Colony formation assay in semi-solid agar medium with GM-CSF and G-CSF. The conditions noted are these: Group 2: 0.05 μg/mL 1,25(OH)2D3 for 24 hours, no 4-HC; mean ± SD, quadruplicates. It is filed as cell-based, human. From the text: Tissue culture grade agar, fetal calf serum (FCS), and powdered Dulbecco's Modified Eagle's Medium (DMEM) were obtained from Invitrogen (Carlsbad, Calif.). Peripheral circulating progenitor stem cells were obtained by venipuncture of the saphenous vein of a healthy donor into sodium heparin vacutainers (Becton, Dickinson and Company, Franklyn Lakes N.J.). The buffy coat was obtained by gradient centrifugation using histopaque 1077 as per manufacturer's instructions. Cells were washed twice with RMPI 1640 supplemented with 10% fetal calf serum (Invitrogen). […] Cells were cultured for 14 days in a 5% CO2 incubator, with 100% humidity at 37° C. At the end of the culture period, colonies (clusters of 50 or more cells) were counted using an inverted microscope by two independent viewers. Peripheral stem cells were randomized into 4 groups at a concentration of 5×10^5 cells/mL in DMEM supplemented with 10% fetal calf serum. Group 1 was an untreated control, group 2 was incubated for 24 hours with 0.05 μg/mL of 1,25(OH)2D3, group 3 was incubated for 24 hours with 0.05 μg/mL of 1,25(OH)2D3, group 4 was untreated. Cells were washed with DMEM 10% fetal calf serum. Groups 3 and 4 were then incubated with 25 μg/mL of 4-HC for 20 hours. Subsequently, all groups were washed twice as previously described. Cells were then plated in semi-solid agar medium as described above.

Series [4] in a line: Viability of myeloid cells by trypan blue exclusion. In kind it is cell-based. To be noted: human, 24-hour exposure, RPMI 1640 with 10% fetal calf serum (FIG. 2). As to the method: Varying doses of 1,25(OH)2D3 were applied to the myeloid cells. A graph of the effects of 1,25(OH)2D3 on myeloid cells is provided as FIG. 2. The viability of the myeloid cells was determined by trypan blue exclusion after a 24-hour exposure to varying doses of 1,25(OH)2D3. For these experiments, 2.5×10^5 cells/mL were incubated with different doses of 1,25(OH)2D3 (0.01 μg/mL, 0.1 μg/mL, 0.5 μg/mL, 0.75 μg/mL, 1 μg/mL, and 10 μg/mL) for 24 hours in RPMI 1640 supplemented with 10% fetal calf serum.

Consider Cyclophosphamide, for which the “Nadir ANC without calcitriol treatment” value in series [1] (first cycle) was 245 ± 25/mm^3; in series [1] (second cycle), 236 ± 32/mm^3. For the same compound, the “Calcium Levels” value in series [2] (Day 22, Chemo + Vehicle) came out at 11 ± 0.3 mg/dL; in series [2] (Day 25, Chemo + Vehicle) it was 9.5 ± 0.2 mg/dL; in series [2] (Day 32, Chemo + Vehicle), 9.5 ± 0.5 mg/dL; in series [2] (Day 49, Chemo + Vehicle) it was 11 ± 0.2 mg/dL; in series [2] (Day 52, Chemo + Vehicle), 10 ± 0.5 mg/dL; in series [2] (Day 60, Chemo + Vehicle), 11 ± 0.4 mg/dL. In addition, the “colony count of bone marrow cultures” value with bone marrow progenitors (day 22, first cycle, cyclophosphamide and vehicle) was 5±1 colonies; with bone marrow progenitors (day 25, first cycle, cyclophosphamide and vehicle), 12±4 colonies; in the series with bone marrow progenitors (day 40 (so in the source), second cycle, cyclophosphamide and vehicle), 4.5±1 colonies; in the series on bone marrow progenitors (day 52, second cycle, cyclophosphamide-treated) it was 7±2.5 colonies. Further, the Remission rate result in the series with MIAC51 was “at least 20%”.
For orientation: viability means a per cent measure of how many cells are alive, often set against a control. High values mean less harm to the cells, low ones more harm to the cells. With `C=C1/C(=C\C=C2/CCC[C@]3(C)[C@@H]([C@H](C)CCCC(C)(C)O)CC[C@@H]23)C[C@@H](O)C[C@@H]1O` [calcitriol, 1,25-dihydroxyvitamin D3], in series [3], the “Colony Counts at 14 Days” value was 48 ± 6. In addition, the “Nadir ANC with calcitriol treatment” value in series [1] (first cycle, 10 μg calcitriol pulse, cyclophosphamide (150 mg/kg) regimen) is on record as 2154 ± 147/mm^3; in series [1] (first cycle, 10 μg calcitriol pulse, cyclophosphamide and doxorubicin (100 mg/kg, 25 mg/kg) regimen) it was 2365 ± 145/mm^3; in series [1] (first cycle, 10 μg calcitriol pulse, cyclophosphamide, doxorubicin and paclitaxel (100, 25, 10 mg/kg) regimen), 2365 ± 125/mm^3; in series [1] (second cycle, 20 μg calcitriol, cyclophosphamide and doxorubicin regimen) it was 2417 ± 136/mm^3; in series [1] (second cycle, 20 μg calcitriol, cyclophosphamide regimen), 2451 ± 235/mm^3; in series [1] (second cycle, 20 μg calcitriol, cyclophosphamide, doxorubicin and paclitaxel regimen), 2364 ± 136/mm^3. For the same compound, the “effect on nadir ANC” value in series [1] (first cycle, all three chemotherapy regimens) is given as “significantly decreases the nadir ANC”. In series [1] (second cycle, all three chemotherapy regimens), the “protection against chemotherapy-induced neutropenia” value is listed as “significantly protects against chemotherapy-induced neutropenia in all three chemotherapy regimens”. The compound also returned a viability at 24 h, 0.05 μg/mL in series [4] of 90%. The hypercalcemia result in series [2] (rat, in vivo) is recorded as “did not induce hypercalcemia”. For the same compound, the “colony count of bone marrow cultures” value with bone marrow progenitors (day 22, first cycle, cyclophosphamide and calcitriol (FIG. 4a)) is 56±17 colonies; in the series with bone marrow progenitors (day 25, first cycle, cyclophosphamide and calcitriol (FIG. 5a)), 80±15 colonies; with bone marrow progenitors (day 40 (so in the source), second cycle, cyclophosphamide and calcitriol), 82±25 colonies; in the series on bone marrow progenitors (day 52, second cycle, cyclophosphamide and calcitriol), 86±25 colonies.
